Results published in article PMC10447463, “Data-mining unveils structure–property–activity correlation of viral infectivity enhancing self-assembling peptides” (Nature Communications, 2023).
“And” between values parts separate entries of the source, which are not always exact repeats. Identical values can stand only once. Like-named read-outs stand apart in the source and are kept apart here.

How the values were obtained:
[1] = β-sheet content by ATR-FT-IR; assay type: physicochemical; details: for b -sheet / %: Fig. S7 panel A, β-sheet content by ATR-FT-IR
How it was run: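 Measurements on freeze-dried PNF powders used a diamond ATR element, 64 scans each, with β-sheet fraction derived as previously reported. CR reflects loss of fluorescamine-reactive monomer after 3 kDa ultrafiltration, averaged over triplicates.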

[2] = assay type: physicochemical; details: for ThT Cat. / ThT-Fluorescence (categorical): ThT-active if fluorescence at least twice the control
How it was run: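 Preformed peptide fibrils (1 mg/mL) mixed with 50 µM ThT in PBS, 15 min at RT, fluorescence ex 440/em 488 nm versus PBS blank, triplicates. Zeta potential: peptides at 1 mg/mL in PBS pH 7.4, aged 1 d at RT, diluted in 1 mM KCl, Smoluchowski from electrophoretic mobility.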

[3] = Turbidity, derived count rate of scattered light; assay type: physicochemical; details: for Count Rate: derived count rate of scattered light (turbidity); for Log10 Count Rate: turbidity, derived count rate of scattered light, data of Figure 2D
[4] = ThT fluorescence category, 1 if Rel. ThT >2

Row | Substance | b -sheet / % [1] | Tht category (> 2 to blank = +) ([2]; Fig S10 panel D) | ThT Cat. ([2]; Fig S10 panel E) | Tht category (> 2 to blank = +) ([2]; FigS12 panel A) | ThT Cat, ([2]; FigS12 panel B) | ThT Cat, ([2]; ThT category, 1 if Rel. ThT >2) | ThT Cat. ([2]; ThT category, 1 if Rel. ThT >2) | ThT Cat. / ThT-Fluorescence (categorical) [2] | Count Rate [3] | Log10 Count Rate [3] | FTIR ß-sheet content/ % [1] | FTIR ß-sheet content/ % ([1]; ATR-FT-IR, listed as EF-C) | Tht rel to blank (42.1851851851852) ([2]; ThT fluorescence relative to blank (42.1851851851852 a.u.)) | Tht rel to blank (42.1851851851852) ([2]; ThT fluorescence relative to blank, blank = 42.1851851851852) | Tht category (> 1.5 to blank = +) ([2]; category 1/0) | Tht rel to blank (42.1851851851852) ([2]; relative to blank 42.1851851851852 a.u.) | ThT Cat. [2, 4]
1 | CRFRVPF | 11.43% | 0 (ThT-inactive (N-Fold <2)) | 0 (ThT-inactive (N-Fold <2)) | 0 (ThT-inactive (N-Fold <2)) | 0 (ThT-inactive (N-Fold <2)) | 0 (ThT-inactive (N-Fold <2)) | 0 (ThT-inactive (N-Fold <2)) | 0 (ThT-inactive (N-Fold <2)) | 73.97 | 1.869 | – | – | – | – | – | – | –
2 | QCKIKQIINMWQ [reference compound] | 51.73% | 1 (ThT. Cat is 1, if Rel. ThT >2) | 1 (ThT. Cat is 1, if Rel. ThT >2) | – | – | 1 (ThT. Cat is 1, if Rel. ThT >2) | 1 (ThT. Cat is 1, if Rel. ThT >2) | 1 (ThT. Cat is 1, if Rel. ThT >2) | 2602 | 3.415 | 39.05% | 39% and 39.05% | 3.802 | 3.802 | 1 (ThT. Cat is 1, if Rel. ThT >2) | 3.802 | –
3 | KIKIQINM | 41% | 0 (ThT-inactive (N-Fold <2)) | 0 (ThT-inactive (N-Fold <2)) | – | – | 0 (ThT-inactive (N-Fold <2)) | – | 0 (ThT-inactive (N-Fold <2)) | 262.1 | 2.418 | – | – | – | – | – | – | 0 (ThT-inactive (N-Fold <2))
4 | KIRGKFEKED | 28.67% | 1 (ThT. Cat is 1, if Rel. ThT >2) | – | 1 (ThT. Cat is 1, if Rel. ThT >2) | 1 (ThT. Cat is 1, if Rel. ThT >2) | 1 (ThT. Cat is 1, if Rel. ThT >2) | 1 (ThT. Cat is 1, if Rel. ThT >2) | 1 (ThT. Cat is 1, if Rel. ThT >2) | 214.4 | 2.331 | – | – | – | – | – | – | –
5 | CKIKQIINM | 46% | 1 (ThT. Cat is 1, if Rel. ThT >2) | 1 (ThT. Cat is 1, if Rel. ThT >2) | – | – | 1 (ThT. Cat is 1, if Rel. ThT >2) | 1 (ThT. Cat is 1, if Rel. ThT >2) | 1 (ThT. Cat is 1, if Rel. ThT >2) | 9058 | 3.957 | – | – | – | – | – | – | –
6 | HGEHGEHGE | 6.271% | 0 (ThT-inactive (N-Fold <2)) | 0 (ThT-inactive (N-Fold <2)) | 0 (ThT-inactive (N-Fold <2)) | 0 (ThT-inactive (N-Fold <2)) | 0 (ThT-inactive (N-Fold <2)) | 0 (ThT-inactive (N-Fold <2)) | 0 (ThT-inactive (N-Fold <2)) | 340.4 | 2.532 | – | – | – | – | – | – | –
7 | NMWQKIKIQI | 39.24% | 1 (ThT. Cat is 1, if Rel. ThT >2) | – | – | – | 1 (ThT. Cat is 1, if Rel. ThT >2) | – | 1 (ThT. Cat is 1, if Rel. ThT >2) | 10024.06667 | 4.001 | – | – | – | – | – | – | 1 (ThT. Cat is 1, if Rel. ThT >2)
8 | KNERIKNERI | 37.95% | 0 (ThT-inactive (N-Fold <2)) | 0 (ThT-inactive (N-Fold <2)) | 0 (ThT-inactive (N-Fold <2)) | 0 (ThT-inactive (N-Fold <2)) | 0 (ThT-inactive (N-Fold <2)) | 0 (ThT-inactive (N-Fold <2)) | 0 (ThT-inactive (N-Fold <2)) | 321.9 | 2.508 | – | – | – | – | – | – | –
9 | HGDKCHGDKC | 4.749% | 0 (ThT-inactive (N-Fold <2)) | 0 (ThT-inactive (N-Fold <2)) | 0 (ThT-inactive (N-Fold <2)) | 0 (ThT-inactive (N-Fold <2)) | 0 (ThT-inactive (N-Fold <2)) | 0 (ThT-inactive (N-Fold <2)) | 0 (ThT-inactive (N-Fold <2)) | 12.43 | 1.095 | – | – | – | – | – | – | –
10 | KIKIQINMWA | 49.91% | 0 (ThT-inactive (N-Fold <2)) | – | – | – | 0 (ThT-inactive (N-Fold <2)) | – | 0 (ThT-inactive (N-Fold <2)) | 1101.2 | 3.042 | – | – | – | – | – | – | 0 (ThT-inactive (N-Fold <2))
11 | HHHHEIEIEIEI | 48.37% | 1 (ThT. Cat is 1, if Rel. ThT >2) | – | 1 (ThT. Cat is 1, if Rel. ThT >2) | 1 (ThT. Cat is 1, if Rel. ThT >2) | 1 (ThT. Cat is 1, if Rel. ThT >2) | – | 1 (ThT. Cat is 1, if Rel. ThT >2) | 103.3 | 2.014 | – | – | – | – | – | – | 1 (ThT. Cat is 1, if Rel. ThT >2)
12 | CEFEFQF | 53% | 0 (ThT-inactive (N-Fold <2)) | – | 0 (ThT-inactive (N-Fold <2)) | 0 (ThT-inactive (N-Fold <2)) | 0 (ThT-inactive (N-Fold <2)) | – | 0 (ThT-inactive (N-Fold <2)) | 367.4 | 2.565 | – | – | – | – | – | – | 0 (ThT-inactive (N-Fold <2))
13 | PPFHPPPFHP | 46.6563% | 0 (ThT-inactive (N-Fold <2)) | – | 0 (ThT-inactive (N-Fold <2)) | 0 (ThT-inactive (N-Fold <2)) | 0 (ThT-inactive (N-Fold <2)) | 0 (ThT-inactive (N-Fold <2)) | 0 (ThT-inactive (N-Fold <2)) | 59.13 | 1.772 | – | – | – | – | – | – | –
14 | KKFQKKFQ | 40.421% | 0 (ThT-inactive (N-Fold <2)) | – | 0 (ThT-inactive (N-Fold <2)) | 0 (ThT-inactive (N-Fold <2)) | 0 (ThT-inactive (N-Fold <2)) | 0 (ThT-inactive (N-Fold <2)) | 0 (ThT-inactive (N-Fold <2)) | 73.6 | 1.867 | – | – | – | – | – | – | –
15 | CRFRFQF | 39.77% | 1 (ThT. Cat is 1, if Rel. ThT >2) | 1 (ThT. Cat is 1, if Rel. ThT >2) | – | – | 1 (ThT. Cat is 1, if Rel. ThT >2) | 1 (ThT. Cat is 1, if Rel. ThT >2) | 1 (ThT. Cat is 1, if Rel. ThT >2) | 390.5 | 2.592 | – | – | – | – | – | – | –
16 | NMWQKAKAQA | 37.34% | 1 (ThT. Cat is 1, if Rel. ThT >2) | – | 1 (ThT. Cat is 1, if Rel. ThT >2) | 1 (ThT. Cat is 1, if Rel. ThT >2) | 1 (ThT. Cat is 1, if Rel. ThT >2) | 1 (ThT. Cat is 1, if Rel. ThT >2) | 1 (ThT. Cat is 1, if Rel. ThT >2) | 242.2 | 2.384 | – | – | – | – | – | – | –
